Measurements as given in patent publication US20090156668A1, “Ginkgolide Compounds, Compositions, And Extracts, And Uses Thereof” (priority 2004, published 2009).
pIC50: −log10 of the molar value. Like-named read-outs stand apart in the source and are kept apart here.

Legend:
[1] = molecular target: platelet activating factor (Homo sapiens, UniProt P25105); conditions: analogs obtained as racemates, cited from earlier work
[2] = test system: beta-amyloid (1-42)-induced inhibition of long-term potentiation in the CA1 region of hippocampal slices; format: cell-based, mice
[3] = test system: rat hippocampal neuron cultures; experiment: neuroprotection assay: beta amyloid-induced neuronal cell death, viable cells by cell nuclei counting; conditions: for number of viable cells (control = 100%): ginkgolide 1 μM + oligomeric amyloid beta, mean±SEM of 3 experiments
[4] = read-out: anti-PAF IC50; analogs obtained as racemates; cited from earlier work

Chain of platelet activating factor (P25105 whole entry): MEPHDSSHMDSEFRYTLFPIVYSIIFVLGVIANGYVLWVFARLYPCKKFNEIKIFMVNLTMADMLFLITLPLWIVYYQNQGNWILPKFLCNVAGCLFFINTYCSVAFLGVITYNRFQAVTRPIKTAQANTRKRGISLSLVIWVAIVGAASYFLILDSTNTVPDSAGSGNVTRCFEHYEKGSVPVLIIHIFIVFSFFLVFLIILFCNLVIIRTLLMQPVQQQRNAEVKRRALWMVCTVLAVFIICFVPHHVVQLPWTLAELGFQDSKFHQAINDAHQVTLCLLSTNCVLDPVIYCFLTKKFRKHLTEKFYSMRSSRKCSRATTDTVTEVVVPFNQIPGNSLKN

| Molecule | rescue of LTP (L-LTP) impairment in slices treated with Aβ [2] | number of viable cells (control = 100%) ([3]; 24 h) | further results |
| --- | --- | --- | --- |
| CC1C(=O)OC2CC34C5CC(C(C)(C)C)C36C(=O)C(=O)OC6OC4(C(=O)O5)C21O (centres unmarked) [10-keto analog] | – | – | pIC50 ([1]; read-out: anti-PAF IC50): 5.41 |
| Ginkgolide B [GB] | does not rescue L-LTP impairment | – | pIC50 ([1]; read-out: anti-PAF activity IC50): 6.22 |
| C[C@@H]1C(=O)O[C@H]2CC34C5OC(=O)C3(OC3OC(=O)[C@H](O)C34[C@H](C(C)(C)C)[C@H]5O)[C@]21O (some centres unmarked) [Ginkgolide J] | rescued the LTP to the same values recorded in control untreated slices | 70.7±1.4% | consistently able to prevent amyloid beta-induced cell death [3]: consistently able to prevent cell death; more cells than the other treatments [3]: approximately 40%; prevention of amyloid beta toxicity [3]: appeared to completely prevent amyloid beta toxicity |
| CC(C)(C)[C@]1(O)CC2OC(=O)CC23C(=O)OC2OC(=O)[C@H](O)C231 (some centres unmarked) [BB, bilobalide] | does not rescue L-LTP impairment | – | – |
| Ginkgolide C [GC] | does not rescue L-LTP impairment | – | – |
| C[C@@H]1C(=O)O[C@H]2CC34C5C[C@@H](C(C)(C)C)C36C(OC(=O)[C@@H]6O)OC4(C(=O)O5)[C@]21O (some centres unmarked) [Ginkgolide A] | rescued the LTP to the same values recorded in control untreated slices | 50.5±5.7% | pIC50 [4]: 5.72; consistently able to prevent amyloid beta-induced cell death ([3]; ginkgolide 1 μM, 24 h): not |
